target: recombinant Mcl-1 (residues 172-327) (Homo sapiens (Human), UniProt Q07820); assay: Fluorescence polarization anisotropy competition assay (FITC-Bak or FITC-Bim BH3 peptide) with Mcl-1; format: binding; conditions: Table 2; Ki bins given in nM; FITC-Bak or FITC-Bim peptide competition; Ki converted from IC50; read-out: Ki for Inhibition of Mcl-1
Sequence (Q07820 172-327): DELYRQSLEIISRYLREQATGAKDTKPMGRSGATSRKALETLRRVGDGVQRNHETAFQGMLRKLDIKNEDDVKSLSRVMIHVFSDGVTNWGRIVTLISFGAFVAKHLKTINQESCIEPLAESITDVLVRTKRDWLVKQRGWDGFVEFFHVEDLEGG

Compound | Ki [nM]
Cc1cc(OCCCc2c(C(=O)NCc3cc(C(=O)O)cc(N4CCc5ccccc5C4)n3)[nH]c3c(-c4c(C)nn(C)c4C)c(Cl)ccc23)cc(C)c1Cl [I-282, 2-((6-chloro-3-(3-(4-chloro-3,5-dimethylphenoxy)propyl)-7-(1,3,5-trimethyl-1H-pyrazol-4-yl)-1H-indole-2-carboxamido)methyl)-6-(3,4-dihydroisoquinolin-2(1H)-yl)isonicotinic acid] | < 50
Cc1cc(OCCCc2c(C(=O)NCc3cc(C(=O)O)cc(NCCC(C)C)n3)[nH]c3c(-c4c(C)nn(C)c4C)c(Cl)ccc23)cc(C)c1Cl [I-283, 2-((6-chloro-3-(3-(4-chloro-3,5-dimethylphenoxy)propyl)-7-(1,3,5-trimethyl-1H-pyrazol-4-yl)-1H-indole-2-carboxamido)methyl)-6-(isopentylamino)isonicotinic acid] | < 50
Cc1cc(OCCCc2c(C(=O)NCc3cc(C(=O)O)cc(N4CCN(C(=O)CC(C)C)CC4)n3)[nH]c3c(-c4c(C)nn(C)c4C)c(Cl)ccc23)cc(C)c1Cl [I-284, 2-((6-chloro-3-(3-(4-chloro-3,5-dimethylphenoxy)propyl)-7-(1,3,5-trimethyl-1H-pyrazol-4-yl)-1H-indole-2-carboxamido)methyl)-6-(4-(3-methylbutanoyl)piperazin-1-yl)isonicotinic acid] | < 50
Cc1cc(OCCCc2c(C(=O)NCc3cc(C(=O)O)cc(N4CCN(CCC(C)C)CC4)n3)[nH]c3c(-c4c(C)nn(C)c4C)c(Cl)ccc23)cc(C)c1Cl [I-285, 2-((6-chloro-3-(3-(4-chloro-3,5-dimethylphenoxy)propyl)-7-(1,3,5-trimethyl-1H-pyrazol-4-yl)-1H-indole-2-carboxamido)methyl)-6-(4-isopentylpiperazin-1-yl)isonicotinic acid] | < 50
Cc1cc(OCCCc2c(C(=O)NCC(=O)O)[nH]c3c(-c4c(C)nn(C)c4C)cccc23)cc(C)c1Cl [I-286, (3-(3-(4-chloro-3,5-dimethylphenoxy)propyl)-7-(1,3,5-trimethyl-1H-pyrazol-4-yl)-1H-indole-2-carbonyl)glycine] | < 50
Cc1cc(OCCCc2c(C(=O)NCC(=O)NCC(=O)O)[nH]c3c(-c4c(C)nn(C)c4C)cccc23)cc(C)c1Cl [I-290, (3-(3-(4-chloro-3,5-dimethylphenoxy)propyl)-7-(1,3,5-trimethyl-1H-pyrazol-4-yl)-1H-indole-2-carbonyl)glycylglycine] | < 50
Cc1cc(OCCCc2c(C(=O)NCC(=O)N[C@@H](Cc3ccccc3)C(=O)O)[nH]c3c(-c4c(C)nn(C)c4C)cccc23)cc(C)c1Cl [I-291, (3-(3-(4-chloro-3,5-dimethylphenoxy)propyl)-7-(1,3,5-trimethyl-1H-pyrazol-4-yl)-1H-indole-2-carbonyl)glycyl-L-phenylalanine] | < 50
Cc1cc(OCCCc2c(C(=O)NCC(=O)N[C@@H](CC(C)C)C(=O)O)[nH]c3c(-c4c(C)nn(C)c4C)cccc23)cc(C)c1Cl [I-292, (3-(3-(4-chloro-3,5-dimethylphenoxy)propyl)-7-(1,3,5-trimethyl-1H-pyrazol-4-yl)-1H-indole-2-carbonyl)glycyl-L-leucine] | < 50
Cc1cc(OCCCc2c(C(=O)NCc3cc(C(=O)O)c(CN4CCc5ccccc5C4)o3)[nH]c3c(-c4c(C)nn(C)c4C)cccc23)cc(C)c1Cl [I-293, 5-((3-(3-(4-chloro-3,5-dimethylphenoxy)propyl)-7-(1,3,5-trimethyl-1H-pyrazol-4-yl)-1H-indole-2-carboxamido)methyl)-2-((3,4-dihydroisoquinolin-2(1H)-yl)methyl)furan-3-carboxylic acid] | < 50
Cc1cc(OCCCc2c3n(c4c(-c5c(C)nn(C)c5C)c(Cl)ccc24)CCCN(CCc2ccccc2C(=O)O)C3=O)cc(C)c1Cl [I-294, 2-(2-(8-chloro-11-(3-(4-chloro-3,5-dimethylphenoxy)propyl)-1-oxo-7-(1,3,5-trimethyl-1H-pyrazol-4-yl)-4,5-dihydro-1H-[1,4]diazepino[1,2-a]indol-2(3H)-yl)ethyl)benzoic acid] | < 50
Cc1cc(OCCCc2c3n(c4c(-c5c(C)nn(CC(=O)O)c5C)c(Cl)ccc24)CCCNC3=O)cc(C)c1Cl [I-295, 2-(4-(8-chloro-11-(3-(4-chloro-3,5-dimethylphenoxy)propyl)-1-oxo-2,3,4,5-tetrahydro-1H-[1,4]diazepino[1,2-a]indol-7-yl)-3,5-dimethyl-1H-pyrazol-1-yl)acetic acid] | < 50
Cc1cc(OCCCc2c3n(c4c(-c5c(C)nn(C)c5C)cccc24)CCCN(Cc2cc(Br)cc(C(=O)O)c2)C3=O)cc(C)c1Cl [I-296, 3-bromo-5-((11-(3-(4-chloro-3,5-dimethylphenoxy)propyl)-1-oxo-7-(1,3,5-trimethyl-1H-pyrazol-4-yl)-4,5-dihydro-1H-[1,4]diazepino[1,2-a]indol-2(3H)-yl)methyl)benzoic acid] | 51 to 100
Cc1cc(CN2CCCn3c(c(CCCOc4cc(C)c(Cl)c(C)c4)c4ccc(Cl)c(-c5c(C)nn(C)c5C)c43)C2=O)cc(C(=O)O)c1 [I-297, 3-((8-chloro-11-(3-(4-chloro-3,5-dimethylphenoxy)propyl)-1-oxo-7-(1,3,5-trimethyl-1H-pyrazol-4-yl)-4,5-dihydro-1H-[1,4]diazepino[1,2-a]indol-2(3H)-yl)methyl)-5-methylbenzoic acid] | 51 to 100
Cc1cc(OCCCc2c3n(c4c(-c5c(C)nn(C)c5C)c(Cl)ccc24)CCCN(Cc2cc(C(=O)O)cc(Cl)n2)C3=O)cc(C)c1Cl [I-298, 2-chloro-6-((8-chloro-1-(3-(4-chloro-3,5-dimethylphenoxy)propyl)-1-oxo-7-(1,3,5-trimethyl-1H-pyrazol-4-yl)-4,5-dihydro-1H-[1,4]diazepino[1,2-a]indol-2(3H)-yl)methyl)isonicotinic acid] | < 50
Cc1cc(OCCCc2c3n(c4c(-c5c(C)nn(C)c5C)c(Cl)ccc24)CCCN(Cc2cc(Br)cc(C(=O)O)c2)C3=O)cc(C)c1Cl [I-299, 3-bromo-5-((8-chloro-11-(3-(4-chloro-3,5-dimethylphenoxy)propyl)-1-oxo-7-(1,3,5-trimethyl-1H-pyrazol-4-yl)-4,5-dihydro-1H-[1,4]diazepino[1,2-a]indol-2(3H)-yl)methyl)benzoic acid] | < 50
Cc1cc(OCCCc2c3n(c4c(-c5c(C)nn(C)c5C)c(Cl)ccc24)CCCN(Cc2cc(OCCC(C)C)cc(C(=O)O)c2)C3=O)cc(C)c1Cl [I-300, 3-((8-chloro-11-(3-(4-chloro-3,5-dimethylphenoxy)propyl)-1-oxo-7-(1,3,5-trimethyl-1H-pyrazol-4-yl)-4,5-dihydro-1H-[1,4]diazepino[1,2-a]indol-2(3H)-yl)methyl)-5-(isopentyloxy)benzoic acid] | < 50
Cc1cc(OCCCc2c3n(c4c(-c5c(C)nn(C)c5C)c(Cl)ccc24)CCCN(Cc2cc(OCCCC(C)C)cc(C(=O)O)c2)C3=O)cc(C)c1Cl [I-301, 3-((8-chloro-11-(3-(4-chloro-3,5-dimethylphenoxy)propyl)-1-oxo-7-(1,3,5-trimethyl-1H-pyrazol-4-yl)-4,5-dihydro-1H-[1,4]diazepino[1,2-a]indol-2(3H)-yl)methyl)-5-((4-methylpentyl)oxy)benzoic acid] | < 50
Cc1cc(OCCCc2c3n(c4c(-c5c(C)nn(C)c5C)c(Cl)ccc24)CCCN(Cc2cc(C(=O)O)cc(OCCC(C)C)n2)C3=O)cc(C)c1Cl [I-302, 2-((8-chloro-11-(3-(4-chloro-3,5-dimethylphenoxy)propyl)-1-oxo-7-(1,3,5-trimethyl-1H-pyrazol-4-yl)-4,5-dihydro-1H-[1,4]diazepino[1,2-a]indol-2(3H)-yl)methyl)-6-(isopentyloxy)isonicotinic acid] | < 50
Cc1cc(OCCCc2c3n(c4c(-c5c(C)nn(C)c5C)c(Cl)ccc24)CCCN(Cc2cc(C(=O)O)cc(OCCCC(C)C)n2)C3=O)cc(C)c1Cl [I-303, 2-((8-chloro-11-(3-(4-chloro-3,5-dimethylphenoxy)propyl)-1-oxo-7-(1,3,5-trimethyl-1H-pyrazol-4-yl)-4,5-dihydro-1H-[1,4]diazepino[1,2-a]indol-2(3H)-yl)methyl)-6-((4-methylpentyl)oxy)isonicotinic acid] | < 50
Cc1cc(OCCCc2c3n(c4c(-c5c(C)nn(C)c5C)c(Cl)ccc24)CCCN(CC(=O)O)C3=O)cc(C)c1Cl [I-304, 2-(8-chloro-11-(3-(4-chloro-3,5-dimethylphenoxy)propyl)-1-oxo-7-(1,3,5-trimethyl-1H-pyrazol-4-yl)-4,5-dihydro-1H-[1,4]diazepino[1,2-a]indol-2(3H)-yl)acetic acid] | < 50
Cc1cc(OCCCc2c3n(c4c(-c5c(C)nn(C)c5C)c(Cl)ccc24)CCCN(CC(=O)N[C@@H](Cc2ccccc2)C(=O)O)C3=O)cc(C)c1Cl [I-305, (2-(8-chloro-11-(3-(4-chloro-3,5-dimethylphenoxy)propyl)-1-oxo-7-(1,3,5-trimethyl-1H-pyrazol-4-yl)-4,5-dihydro-1H-[1,4]diazepino[1,2-a]indol-2(3H)-yl)acetyl)-L-phenylalanine] | < 50

same assay, conditions: Table 2; Ki bins given in μM; FITC-Bak or FITC-Bim peptide competition; Ki converted from IC50; read-out: Ki for Inhibition of Mcl-1

Compound | Ki [nM]
Cc1cc(OCCCc2c(C(=O)NCc3cc(C(=O)NC4Cc5ccccc5C4)cc(NC4Cc5ccccc5C4)n3)[nH]c3c(-c4c(C)nn(C)c4C)cccc23)cc(C)c1Cl [I-278, 3-(3-(4-chloro-3,5-dimethylphenoxy)propyl)-N-((6-((2,3-dihydro-1H-inden-2-yl)amino)-4-((2,3-dihydro-1H-inden-2-yl)carbamoyl)pyridin-2-yl)methyl)-7-(1,3,5-trimethyl-1H-pyrazol-4-yl)-1H-indole-2-carboxamide] | 1000 to 9990
COC(=O)[C@H](Cc1ccccc1)NC(=O)CNC(=O)c1[nH]c2c(-c3c(C)nn(C)c3C)cccc2c1CCCOc1cc(C)c(Cl)c(C)c1 [I-288, methyl (3-(3-(4-chloro-3,5-dimethylphenoxy)propyl)-7-(1,3,5-trimethyl-1H-pyrazol-4-yl)-1H-indole-2-carbonyl)glycyl-L-phenylalaninate] | 1000 to 9990
COC(=O)[C@H](CC(C)C)NC(=O)CNC(=O)c1[nH]c2c(-c3c(C)nn(C)c3C)cccc2c1CCCOc1cc(C)c(Cl)c(C)c1 [I-289, methyl (3-(3-(4-chloro-3,5-dimethylphenoxy)propyl)-7-(1,3,5-trimethyl-1H-pyrazol-4-yl)-1H-indole-2-carbonyl)glycyl-L-leucinate] | 10000 to 50000

— patent US10533010B2, “Substituted indole Mcl-1 inhibitors” (Vanderbilt University, priority 2014, dated 2020)
